The values below come from patent EP2014168A1, “Insecticidal heterocyclic compounds” (priority 2007, dated 2009).

As a reminder, the logP is the decadic logarithm of the partition coefficient of the neutral form, usually between octanol and water. Read a high logP as a more lipophilic compound.

A short description of data set [1]: logP determination (acidic, formic acid).
The nature of a further data set: physchem. Particulars: formic acid.
Data set [2] has as its system Myzus persicae. The experiment in a line: Myzus test (spray treatment). It is filed as in vivo. Particulars: foliar, read-out: Wirkung. An excerpt:
Myzus-Test (Spritzbehandlung)
Zur Herstellung einer zweckmäßigen Wirkstoffzubereitung vermischt man 1 Gewichtsteil Wirkstoff mit den angegebenen Mengen Lösungsmittel und Emulgator und verdünnt das Konzentrat mit emulgatorhaltigem Wasser auf die gewünschte Konzentration.
Chinakohlblattscheiben (Brassica pekinensis), die von allen Stadien der Grünen Pfirsichblattlaus (Myzus persicae) befallen sind, werden mit einer Wirkstoffzubereitung der gewünschten Konzentration gespritzt.
Nach der gewünschten Zeit wird die Wirkung in % bestimmt. Dabei bedeutet 100 %, dass alle Blattläuse abgetötet wurden; 0 % bedeutet, dass keine Blattläuse, abgetötet wurden.

Data set [3] concerns Myzus persicae. The experiment in a line: Myzus test - oral. It is filed as in vivo. Particulars: read-out: Wirkung. An excerpt:
Lösungsmittel: 80,0 Gewichtsteile Aceton
Zur Herstellung einer zweckmäßigen Wirkstoffzubereitung vermischt man 1 Gewichtsteil Wirkstoff mit den angegebenen Mengen Lösungsmittel und verdünnt das Konzentrat mit Wasser auf die gewünschte Konzentration.
Gefäße werden mit allen Stadien der Grünen Pfirsichblattlaus (Myzus persicae) besetzt, durch saugen an der Wirkstoffzubereitung der gewünschten Konzentration wird behandelt.
Nach der gewünschten Zeit wird die Wirkung in % bestimmt. Dabei bedeutet 100 %, dass alle Blattläuse abgetötet wurden; 0 % bedeutet, dass keine Blattläuse abgetötet wurden.

Setting [4] is: 500 g/ha, spray on infested Brassica pekinensis leaf discs, 100 % = all aphids killed.
Setting [5] is: 500 g/ha, oral uptake by sucking on the active compound preparation, 100 % = all aphids killed.

The structures appear in SMILES notation. Bounds are passed on as bounds.

The compound `O=C(NCCCl)NC1CCc2ccsc21` (stereo not shown) [Beispiel 1, 1-(2-Chloroethyl)-3-(5,6-dihydro-4H-cyclopenta[b]thien-6-yl)-harnstoff] had a logP in data set [1] (formic acid) of 1.77.

In the case of `c1cc2c(s1)C(NC1=NCCO1)CC2` (stereo not shown) [Beispiel 2, N-(5,6-Dihydro-4H-cyclopenta[b]thien-6-yl)-4,5-dihydro-1,3-oxazol-2-amin], in the data set “physchem”, the logP was determined as 0.42. In the data set with Myzus persicae [2] (in Brassica rapa), the mortality at 500 g/ha was no less than 80%.

In data set [1] (acidic), `COCCNC(=S)N1CCO/C1=N\C1CCc2ccsc21` (stereo not shown) [Beispiel 3, (2Z)-2-(5,6-Dihydro-4H-cyclopenta[b]thien-6-ylimino)-N-(2-methoxyethyl)-1,3-oxazolidine-3-carbothioamid] had a logP of 3.32. Moreover, in the data set on Myzus persicae [2] (setting [4]), the mortality at 500 g/ha is no less than 80%.

For `O=C(NCCCl)NC1CCc2ncccc21` (stereo not shown) [Beispiel 4, 1-(2-Chloroethyl)-3-(6,7-dihydro-5H-cyclopenta[b]pyridin-5-yl)-harnstoff], in data set [1] (acidic), the logP was found to be 0.23.

In data set [1] (acidic), `COCCNC(=S)N1CCO/C1=N\C1CCc2ncccc21` (stereo not shown) [Beispiel 6, (2Z)-2-(6,7-Dihydro-5H-cyclopenta[b]pyridin-5-ylimino)-N-(2-methoxyethyl)-1,3-oxazolidine-3-carbothioamid] returned a lipophilicity (logP) of 1.03. In the data set with Myzus persicae [2] (setting [4]), the mortality at 500 g/ha is no less than 80%.

Take `CNC(=S)N1CCOC1=NC1CCc2ccsc21` (stereo not shown) [Beispiel 7]: the mortality at 500 g/ha in the data set with Myzus persicae [2] (setting [4]) is no less than 80%.

Consider `CCOC(=O)CNC(=S)N1CCOC1=NC1CCc2ccsc21` (stereo not shown) [Beispiel 14], for which, in the data set on Myzus persicae [2] (setting [4]), the mortality at 500 g/ha is no less than 80%.

In the case of `Clc1cc2c(s1)C(N=C1NCCO1)CC2` (stereo not shown) [Beispiel 18], the mortality at 500 g/ha in the data set on Myzus persicae [2] (setting [4]) is no less than 80%.

For the compound `CNC(=S)N1CCOC1=NC1CCc2cc(Cl)sc21` (stereo not shown) [Beispiel 19], the mortality at 500 g/ha in the data set with Myzus persicae [2] (setting [4]) is no less than 80%.

Take `CNC(=S)N1CCOC1=NC1CCc2ncccc21` (stereo not shown) [Beispiel 30]: the mortality at 500 g/ha in the data set with Myzus persicae [2] (setting [4]) is no less than 80%.

Turning to `Cc1cnc2c(c1)CCC2N=C1NCCO1` (stereo not shown) [Beispiel 43], the mortality at 500 g/ha with Myzus persicae [3] (po) is no less than 80%.

As for `CNC(=S)N1CCOC1=NC1CCc2cc(C)cnc21` (stereo not shown) [Beispiel 44], the mortality at 500 g/ha in the data set on Myzus persicae [3] (setting [5]) is no less than 80%.

On to `CCOC(=O)CNC(=S)N1CCOC1=NC1CCc2cc(C)cnc21` (stereo not shown) [Beispiel 47], for which the mortality at 500 g/ha in the data set with Myzus persicae [3] (setting [5]) was no less than 80%.
